Assay results as given in patent US20220144823A1, “PYRAZOLOPYRIDINE DERIVATIVES AS INHIBITORS OF PASK” (Galapagos NV, priority 2019, published 2022).
pIC50: −log10 of the molar value.

What was measured:
human PASK [1] = molecular target: T1, human PASK (Homo sapiens, UniProt Q96RG2); experiment: 33P radioactive kinase assay; type: biochemical; details: 33P radioactive PASK kinase assay, 10 μM ATP, ZIPtide 1 μM
T1 construct: purchased ThermoFisher Scientific PR7013A
Protocol: The principle of the ^33P radioactive kinase assay consists in measuring the incorporated ^33P into the ZIPtide peptide substrate when phosphorylated by human PASK using [^33P]-[…]-ATP and ATP, which correlates with kinase activity.
The test compounds are prepared as a serial dilution of 10 point dose responses with 1/5 dilution steps in 100% DMSO starting from 0.2 or 2 mM highest concentration, diluted 1/20 in water and 5 μL is transferred to the assay plates (Greiner, Cat #651201).
1% DMSO and 10 μM staurosporine final concentrations are used respectively as negative and positive controls.
11 μL of enzyme-substrate mixture is added on the assay plates. The reactions are started by adding 9 μL ATP mixture, consisting of non-labeled and ^33P-labeled ATP, on the assay plates.
The reactions are stopped by adding 25 μL phosphoric acid (150 mM) to the reactions.
The completely terminated kinase reactions are transferred using a harvester on pre-wetted UniFilter-96 plates (UniFilter-96 GF/B, PerkinElmer Inc., Cat #6005177).
After harvesting the kinase reactions, the filter plates are washed 6 times with phosphoric acid (75 mM). The back of the UniFilter-96 plates are sealed and 40 μL MicroScint-20 (PerkinElmer Inc., Cat #6013621) is added to each well. The top of each plate is sealed with TopSeal-A (PerkinElmer Inc., Cat #6050185). Read-out is performed with a TopCount instrument (PerkinElmer Inc.).
Raw data are generated following the read-out performed on the TopCount, used to calculate percentage inhibition (PIN) values and plotted to generate dose response curves and derive the average half maximal inhibitory concentrations (IC50) reported in Table VI.

human PASK [2] = molecular target: T1, human PASK; experiment: ADP-Glo kinase assay; type: biochemical; details: ADPGlo PASK kinase assay, 25 μM ATP, ZIPtide 25 μM
Method in brief: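 Human recombinant PASK phosphorylating ZIPtide peptide with ATP, 120 min at RT; compounds in 10-point 1/5 dilution series, 1% DMSO final. ADP formed measured by ADP-Glo luminescence after ATP depletion; percent inhibition fitted to dose-response curves for averaged IC50.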

[3] = molecular target: T2, autophosphorylation of PASK at position Thr307 in Hek293 cells overexpressing PASK (Homo sapiens, UniProt Q96RG2); experiment: PASK autophosphorylation ELISA assay; type: cell-based; details: 24 h, ELISA readout
T2 construct: expressed in transfected cells; host or cells: Hek293
Protocol: The compounds of the invention are profiled in a cellular assay to determine their capacity to reduce the autophosphorylation levels of PASK at position Thr307 in Hek293 cells overexpressing PASK, using an ELISA-based readout.
At day 1, a 96-well cell assay plate is coated with poly-D-lysine (50 μL/well of a 0.05 mg/mL solution in PBS) and incubated for 1 h at 37° C. The plate is subsequently washed once with PBS and stored dry at RT until further use. Hek293 cells are transfected with a pcDNA3.1-PASK(FL,WT)-FLAG construct (SEQ ID1) and seeded in culture medium (DMEM+10% FBS) in a poly-D-lysine coated 96-well plate (0.3 μL JetPEI DNA transfection reagent (Polyplus-transfection SA, Cat #101-40), 10 ng construct and 90 ng pBluescript, 60000 cells per well). […] The cell plate is incubated overnight at 37° C., 5% CO2.
At day 2, the medium of the assay plate is removed and 100 μL of fresh medium (DMEM+10% FBS) is added to the plate. Cell plate is further incubated overnight at 37° C., 5% CO2. This to allow further expression of PASK protein.
At day 3, the medium is removed and replaced with 100 μL of serum free medium (DMEM). Test compound is added to the plate (8 points concentration curve with 1/3 dilution steps starting from 30 μM final concentration in 0.3% DMSO final). In the positive and negative control wells of the plate, 0.3% DMSO final is added. For each tested condition, duplicates are made for ELISA readout. Cell plate is incubated 24 h at 37° C., 5% CO2.
At day 4, the medium is removed and the plate is washed once with 100 μL/well PBS. Cells are lysed by adding 50 μL/well western blot lysis buffer (20 mM Tris pH 7.5, 150 mM NaCl and 1% Triton) to the plate. The assay plate is stored at −80° C. and thawed to perform the ELISA readout.
At day 1, the ELISA plate is coated with the mouse anti-FLAG antibody (2 μg/mL diluted in PBS, 100 μL/well) and incubated overnight at 4° C.
At day 2, the plate is washed once with 150 μL/well PBS. 200 μL/well blocking buffer (PBS with 3% BSA) is added and the plate is incubated for 4 h at RT. The plate is washed with 150 μL/well high salt washing buffer (20 mM Na2HPO4, 0.5% Triton X-100, 0.1% SDS, 0.1% BSA and 1 M NaCl) followed by one wash with 150 μL/well low salt washing buffer (20 mM Na2HPO4, 0.5% Triton X-100, 0.1% SDS, 0.1% BSA and 150 mM NaCl). Meanwhile, the cell lysate plate is thawed, two wells of the same condition are pooled (2×50 μL) and added to the ELISA plate. The ELISA plate is incubated overnight at 4° C.
At day 3, the ELISA plate is washed twice with 150 μL/well high salt washing buffer followed by two washes with low salt washing buffer. 100 μL/well detection antibody for pPASK (phospho-Akt substrate (RXXS*/T*) (110B7E) rabbit antibody (Cell Signaling Technology, Inc., Cat #9614) 2 μg/mL diluted in PBS with 3% BSA and 1×Halt™ protease and phosphatase inhibitor cocktail (Thermo Fisher Scientific, Inc., Cat #78447)) is added and incubated for 2 h at RT. The plate is washed twice with high and low salt wash buffer (150 μL/well) and 100 μL/well of an HRP antibody (swine anti-rabbit HRP antibody (Agilent Technologies, Inc., Cat #P039901) diluted 1/2000 in PBS with 3% BSA and 1×Halt™ protease and phosphatase inhibitor cocktail) is added to the plate, followed by an incubation for 1 h at RT in the dark (plate sealed with aluminum seal). The plate is washed twice with high and low salt wash buffer (150 μL/well) and 100 μL/well of SuperSignal™ ELISA Pico Chemiluminescent Substrate (Thermo Fisher Scientific, Inc., Cat #37070)(premix part 1 and part 2, 1/1) is added. The plate is incubated for 4 min at RT before measuring luminescence on the Luminoskan™ Ascent (Thermo Fisher Scientific, Inc.) (PMT default voltage; 100 ms integration time). […]

T2 sequence (Q96RG2 with tags, fused parts or gaps): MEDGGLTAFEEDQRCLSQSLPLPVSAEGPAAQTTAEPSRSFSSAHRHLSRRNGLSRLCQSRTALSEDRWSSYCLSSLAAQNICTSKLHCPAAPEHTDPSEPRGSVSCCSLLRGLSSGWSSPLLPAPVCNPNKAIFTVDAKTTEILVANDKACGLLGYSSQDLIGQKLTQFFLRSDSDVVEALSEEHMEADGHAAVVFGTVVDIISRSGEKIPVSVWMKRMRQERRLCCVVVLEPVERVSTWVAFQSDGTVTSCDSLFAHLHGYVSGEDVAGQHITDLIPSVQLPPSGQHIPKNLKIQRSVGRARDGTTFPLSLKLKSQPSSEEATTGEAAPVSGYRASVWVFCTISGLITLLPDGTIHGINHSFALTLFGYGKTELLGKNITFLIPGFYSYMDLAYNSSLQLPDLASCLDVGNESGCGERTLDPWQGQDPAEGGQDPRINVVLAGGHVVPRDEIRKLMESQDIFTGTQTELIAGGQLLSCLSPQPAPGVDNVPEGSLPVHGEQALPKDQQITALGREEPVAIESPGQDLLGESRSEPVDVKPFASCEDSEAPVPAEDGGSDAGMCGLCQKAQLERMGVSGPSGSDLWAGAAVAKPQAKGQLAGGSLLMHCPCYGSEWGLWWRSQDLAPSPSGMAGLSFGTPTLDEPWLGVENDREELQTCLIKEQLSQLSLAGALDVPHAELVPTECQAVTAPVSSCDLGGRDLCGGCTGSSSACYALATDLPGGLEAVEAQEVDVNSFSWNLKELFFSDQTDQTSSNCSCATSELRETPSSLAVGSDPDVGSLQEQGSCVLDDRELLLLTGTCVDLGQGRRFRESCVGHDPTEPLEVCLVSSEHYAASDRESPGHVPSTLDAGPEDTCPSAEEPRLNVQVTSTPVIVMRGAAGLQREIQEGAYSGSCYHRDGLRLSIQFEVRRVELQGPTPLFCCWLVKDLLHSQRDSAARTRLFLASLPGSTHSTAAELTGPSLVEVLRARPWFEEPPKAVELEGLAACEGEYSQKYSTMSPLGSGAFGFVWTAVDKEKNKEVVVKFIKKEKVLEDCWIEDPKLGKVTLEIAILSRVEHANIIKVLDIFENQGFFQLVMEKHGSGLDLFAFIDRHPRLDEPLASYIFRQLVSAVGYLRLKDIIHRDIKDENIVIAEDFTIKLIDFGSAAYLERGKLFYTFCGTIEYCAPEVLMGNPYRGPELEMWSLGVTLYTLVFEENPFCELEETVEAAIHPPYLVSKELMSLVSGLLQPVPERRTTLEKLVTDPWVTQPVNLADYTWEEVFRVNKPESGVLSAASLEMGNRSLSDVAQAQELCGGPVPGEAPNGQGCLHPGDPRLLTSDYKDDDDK
T1 sequence (Q96RG2 whole entry): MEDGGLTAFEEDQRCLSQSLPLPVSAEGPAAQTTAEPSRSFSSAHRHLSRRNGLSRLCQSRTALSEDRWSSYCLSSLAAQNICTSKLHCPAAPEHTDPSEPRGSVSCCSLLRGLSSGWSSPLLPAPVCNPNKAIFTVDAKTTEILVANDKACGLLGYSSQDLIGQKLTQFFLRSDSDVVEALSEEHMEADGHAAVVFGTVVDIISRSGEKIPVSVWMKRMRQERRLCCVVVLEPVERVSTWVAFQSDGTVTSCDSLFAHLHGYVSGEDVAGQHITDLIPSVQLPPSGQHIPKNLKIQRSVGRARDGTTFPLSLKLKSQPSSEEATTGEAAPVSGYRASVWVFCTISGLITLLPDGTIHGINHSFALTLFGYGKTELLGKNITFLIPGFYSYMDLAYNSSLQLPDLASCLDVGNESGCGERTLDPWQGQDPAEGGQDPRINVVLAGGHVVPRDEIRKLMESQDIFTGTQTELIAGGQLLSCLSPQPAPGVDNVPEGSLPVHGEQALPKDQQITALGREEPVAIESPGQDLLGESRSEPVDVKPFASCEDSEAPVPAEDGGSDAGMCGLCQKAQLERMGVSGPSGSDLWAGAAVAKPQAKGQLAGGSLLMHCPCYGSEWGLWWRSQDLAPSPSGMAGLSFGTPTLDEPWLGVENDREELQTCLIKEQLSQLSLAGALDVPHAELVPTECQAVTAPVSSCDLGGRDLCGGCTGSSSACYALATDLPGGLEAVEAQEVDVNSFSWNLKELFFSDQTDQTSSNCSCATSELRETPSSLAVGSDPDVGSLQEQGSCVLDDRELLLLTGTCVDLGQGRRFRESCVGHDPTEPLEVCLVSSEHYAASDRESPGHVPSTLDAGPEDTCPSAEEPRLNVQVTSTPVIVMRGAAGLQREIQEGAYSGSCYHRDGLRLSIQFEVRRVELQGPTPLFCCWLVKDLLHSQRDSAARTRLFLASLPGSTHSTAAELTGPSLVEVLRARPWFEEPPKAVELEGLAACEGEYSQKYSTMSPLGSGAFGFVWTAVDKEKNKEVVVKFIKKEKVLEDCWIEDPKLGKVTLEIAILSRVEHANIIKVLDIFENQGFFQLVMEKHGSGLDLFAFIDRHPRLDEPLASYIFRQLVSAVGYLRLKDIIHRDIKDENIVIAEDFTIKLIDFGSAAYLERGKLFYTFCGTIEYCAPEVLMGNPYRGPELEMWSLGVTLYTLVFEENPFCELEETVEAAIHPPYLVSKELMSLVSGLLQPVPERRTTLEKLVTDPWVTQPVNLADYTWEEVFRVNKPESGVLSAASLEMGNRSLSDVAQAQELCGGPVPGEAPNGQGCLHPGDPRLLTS

pIC50 (human PASK [1])	pIC50 (human PASK [2])	pIC50 [3]	Compound
8.00 to 11.00	8.00 to 11.00	6.00 to 6.30	CCn1nc(C)c(-c2cnn3ccc(-c4cc(C(=O)O)co4)cc23)c1C [Cpd 28, 5-[3-(1-ethyl-3,5-dimethyl-pyrazol-4-yl)pyrazolo[1,5-a]pyridin-5-yl]furan-3-carboxylic acid]
8.00 to 11.00	8.00 to 11.00	< 5.30	COc1nc(-c2ccn3ncc(-c4c(C)nn(C)c4C)c3c2)sc1C(=O)O [Cpd 8, 4-methoxy-2-[3-(1,3,5 trimethylpyrazol-4-yl)pyrazolo[1,5-a]pyridin-5-yl]thiazole-5-carboxylic acid]
8.00 to 11.00	8.00 to 11.00	5.30 to 6.00	Cc1nn(C(F)F)c(C)c1-c1cnn2ccc(-c3cc(C(=O)O)co3)cc12 [Cpd 35, 5-[3-[1-(difluoromethyl)-3,5-dimethyl-pyrazol-4-yl]pyrazolo[1,5-a]pyridin-5-yl]furan-3-carboxylic acid]
8.00 to 11.00	8.00 to 11.00	6.00 to 6.30	CCOc1nc(-c2ccn3ncc(-c4c(C)nn(C)c4C)c3c2)sc1C(=O)O [Cpd 9, 4-ethoxy-2-[3-(1,3,5-trimethylpyrazol-4-yl)pyrazolo[1,5-a]pyridin-5-yl]thiazole-5-carboxylic acid]
–	8.00 to 11.00	< 5.30	CCn1nc(C)c(-c2cnn3ccc(-n4cc(C(N)=O)c(OC)n4)cc23)c1C [Cpd 82, 1-[3-(1-ethyl-3,5-dimethyl-pyrazol-4-yl)pyrazolo[1,5-a]pyridin-5-yl]-3-methoxy-pyrazole-4-carboxamide]
–	8.00 to 11.00	6.30 to 10.00	CCOc1nc(-c2ccn3ncc(-c4c(C)nn(CC(F)(F)F)c4C)c3c2)sc1C(=O)O [Cpd 70, 2-[3-[3,5-dimethyl-1-(2,2,2-trifluoroethyl)pyrazol-4-yl]pyrazolo[1,5-a]pyridin-5-yl]-4-ethoxy-thiazole-5-carboxylic acid]
–	8.00 to 11.00	6.30 to 10.00	CCOc1nc(-c2ccn3ncc(-c4c(C)nn(C(C)C)c4C)c3c2)sc1C(=O)O [Cpd 65, 4-ethoxy-2-[3-(1-isopropyl-3,5-dimethyl-pyrazol-4-yl)pyrazolo[1,5-a]pyridin-5-yl]thiazole-5-carboxylic acid]
8.00 to 11.00	8.00 to 11.00	6.00 to 6.30	Cc1nn(C)c(C)c1-c1cnn2ccc(-c3cc(C(=O)O)co3)cc12 [Cpd 2, 5-[3-(1,3,5-trimethylpyrazol-4-yl)pyrazolo[1,5-a]pyridin-5-yl]furan-3-carboxylic acid]
–	8.00 to 11.00	6.30 to 10.00	Cc1nn(C)c(C)c1-c1cnn2ccc(-c3nc(C4CC4)c(C(=O)O)s3)cc12 [Cpd 86, 4-cyclopropyl-2-[3-(1,3,5-trimethylpyrazol-4-yl)pyrazolo[1,5-a]pyridin-5-yl]thiazole-5-carboxylic acid]
–	8.00 to 11.00	< 5.30	COc1nn(-c2ccn3ncc(-c4c(C)nn(CC(F)(F)F)c4C)c3c2)cc1C(=O)O [Cpd 68, 1-[3-[3,5-dimethyl-1-(2,2,2-trifluoroethyl)pyrazol-4-yl]pyrazolo[1,5-a]pyridin-5-yl]-3-methoxy-pyrazole-4-carboxylic acid]
8.00 to 11.00	8.00 to 11.00	5.30 to 6.00	Cc1noc(C)c1-c1cnn2ccc(-c3cc(C(=O)O)c(C4CC4)o3)cc12 [Cpd 32, 2-cyclopropyl-5-[3-(3,5-dimethylisoxazol-4-yl)pyrazolo[1,5-a]pyridin-5-yl]furan-3-carboxylic acid]
–	8.00 to 11.00	< 5.30	COc1nn(-c2ccn3ncc(-c4c(C)nn(C(C)C)c4C)c3c2)cc1C(=O)O [Cpd 66, 1-[3-(1-isopropyl-3,5-dimethyl-pyrazol-4-yl)pyrazolo[1,5-a]pyridin-5-yl]-3-methoxy-pyrazole-4-carboxylic acid]
8.00 to 11.00	–	6.30 to 10.00	Cc1c(-c2cnn3ccc(-c4cc(C(=O)O)co4)cc23)c(C(F)(F)F)nn1C [Cpd 23, 5-[3-[1,5-dimethyl-3-(trifluoromethyl)pyrazol-4-yl]pyrazolo[1,5-a]pyridin-5-yl]furan-3-carboxylic acid]
–	8.00 to 11.00	< 5.30	Cc1nn(CC(F)(F)F)c(C)c1-c1cnn2ccc(-n3cc(C(=O)O)cn3)cc12 [Cpd 62, 1-[3-[3,5-dimethyl-1-(2,2,2-trifluoroethyl)pyrazol-4-yl]pyrazolo[1,5-a]pyridin-5-yl]pyrazole-4-carboxylic acid]
–	8.00 to 11.00	5.30 to 6.00	CCn1nc(C)c(-c2cnn3ccc(-c4nc(OC)c(C(=O)O)s4)cc23)c1C [Cpd 84, 2-[3-(1-ethyl-3,5-dimethyl-pyrazol-4-yl)pyrazolo[1,5-a]pyridin-5-yl]-4-methoxy-thiazole-5-carboxylic acid]
–	8.00 to 11.00	5.30 to 6.00	CCOc1nc(-c2ccn3ncc(-c4c(C)nn(C(F)F)c4C)c3c2)sc1C(=O)O [Cpd 72, 2-[3-[1-(difluoromethyl)-3,5-dimethyl-pyrazol-4-yl]pyrazolo[1,5-a]pyridin-5-yl]-4-ethoxy-thiazole-5-carboxylic acid]
8.00 to 11.00	8.00 to 11.00	5.30 to 6.00	Cc1nn(CC(F)(F)F)c(C)c1-c1cnn2ccc(-c3cc(C(=O)O)co3)cc12 [Cpd 40, 5-[3-[3,5-dimethyl-1-(2,2,2-trifluoroethyl)pyrazol-4-yl]pyrazolo[1,5-a]pyridin-5-yl]furan-3-carboxylic acid]
–	8.00 to 11.00	5.30 to 6.00	COc1nc(-c2ccn3ncc(-c4c(C)nn(C(C)C(F)(F)F)c4C)c3c2)sc1C(=O)O (stereo not shown) [Cpd 85, 2-[3-[3,5-dimethyl-1-(2,2,2-trifluoro-1-methyl-ethyl)pyrazol-4-yl]pyrazolo[1,5-a]pyridin-5-yl]-4-methoxy-thiazole-5-carboxylic acid]
